Reference: PMC4189701 (Drug Design, Development and Therapy, 2014)
Several values for one entry are separate records, joined by “and”; a condition that tells them apart may be missing. Identical values can stand only once. Entries after “also recorded” stand apart in the source; their conditions may differ. Like-named read-outs stand apart in the source and are kept apart here.

Columns and labels:
CYP3A = CYP3A enzyme activity; assay type: in vitro ADME; conditions: primary human hepatocytes
CYP3A4 mRNA = CYP3A4 mRNA content in primary human hepatocytes; assay type: in vitro ADME; conditions: human
[1] = cited from earlier work; for dose proportionality of Cmax or AUC: healthy subjects
[2] = Single-dose pharmacokinetics in healthy subjects; assay type: in vivo, human; conditions: for AUC(0-inf) / AUC(0-t) / Cmax / Tmax / half-life: human, plasma, oral; for AUC∞/dose / Cmax/dose / fe / CL/F: mean ± SD; for fe: unchanged in urine
Tolerability [3] = assay type: in vivo, human
[4] = tested on: cytochrome P450 (CYP)-3A4; conditions: human hepatocytes; ref unpublished data; cited from earlier work
Multiple-dose = assay type: in vivo, human; conditions: for steady state attained: RM-ANOVA of predose concentrations; for Accumulation index: AUC144–168h/AUC0–24h; for Accumulation index / AUCτ,ss/dose / CL/F / Cmax,ss/dose / fe: mean ± SD; for fe: unchanged in urine
[5] = Tolerability over the whole study; assay type: in vivo, human
[6] = mice and dogs; preclinical studies; cited from earlier work
Tolerability [7] = assay type: in vivo, human; conditions: single dose
[8] = tested on: laboratory strains and clinical HIV-1 isolates; conditions: preclinical; ref unpublished data; cited from earlier work
[9] = Pharmacokinetics over single- and multiple-dose studies together; assay type: in vivo, human
K103N = conditions: major efavirenz-resistant mutation; ref unpublished data; cited from earlier work
[10] = tested on: CYP3A4 messenger ribonucleic acid (mRNA); assay: CYP3A4 mRNA content in primary human hepatocytes; assay type: in vitro ADME; conditions: summary in words
[11] = 75–600 mg, single or multiple doses

CCC1(c2ccccc2)C(=O)NC(=O)NC1=O [Phenobarbital, reference compound]
fold induction at 1 mM (CYP3A; human, probe testosterone): 9.9 | fold induction at 1 mM (CYP3A4 mRNA): 8.9

O=C1Nc2ccc(Cl)cc2[C@@](C#CC2CC2)(C(F)(F)F)O1 [efavirenz]
autoinduction phenomenon [1]: autoinduction phenomenon has also been observed | dose proportionality of Cmax or AUC ([1]; single oral administration 100–1,600 mg): increased less than dose-proportionally

Cc1ccnc2c1NC(=O)c1cccnc1N2C1CC1 [nevirapine]
autoinduction phenomenon [1]: autoinduction phenomenon has also been observed | dose proportionality of Cmax or AUC ([1]; single oral administration 2.5–400 mg): increased less than dose-proportionally

CCn1c(C(=O)c2cc(C)cc(C#N)c2)c(C(C)C)c(=O)[nH]c1=O [KM-023, 3-[3-ethyl-5-isopropyl-2,6-dioxo-1,2,3,6-tetrahydro-pyrimidine-4-carbonyl]-5-methyl benzonitrile]
AUC(0-inf) ([2]; 75 mg): 11100 ng·h/mL | AUC(0-t) ([2]; 75 mg): 8740 ng·h/mL | Cmax ([2]; 75 mg): 440 ± 68.3 ng/mL | Tmax ([2]; 75 mg): 2 h | half-life ([2]; 75 mg): 29.3 ± 12.5 h | AUC(0-inf) ([2]; 150 mg): 14100 ng·h/mL | AUC(0-t) ([2]; 150 mg): 11200 ng·h/mL | Cmax ([2]; 150 mg): 621 ± 105 ng/mL | Tmax ([2]; 150 mg): 2 h | half-life ([2]; 150 mg): 29.5 ± 11.9 h | AUC(0-inf) ([2]; 300 mg): 18100 ng·h/mL | AUC(0-t) ([2]; 300 mg): 14700 ng·h/mL | Cmax ([2]; 300 mg): 832 ± 201 ng/mL | Tmax ([2]; 300 mg): 2 h | half-life ([2]; 300 mg): 31.2 ± 21.1 h | AUC(0-inf) ([2]; 600 mg): 33700 ng·h/mL | AUC(0-t) ([2]; 600 mg): 26800 ng·h/mL | Cmax ([2]; 600 mg): 1250 ng/mL | Tmax ([2]; 600 mg): 3 h | half-life ([2]; 600 mg): 29.7 ± 15.6 h | AUC∞/dose ([2]; single dose 75 mg): 148.6 ± 64.1 ng·mL·h/mg | Cmax/dose ([2]; single dose 75 mg): 5.9 ± 0.9 ng/mL/mg | fe ([2]; single dose 75 mg): 0.94±0.64% | AUC∞/dose ([2]; single dose 150 mg): 94.3 ± 38.2 ng·mL·h/mg | CL/F ([2]; single dose 150 mg): 24.8 ± 5.6 L/h | Cmax/dose ([2]; single dose 150 mg): 4.1 ± 0.7 ng/mL/mg | fe ([2]; single dose 150 mg): 0.65±0.34% | AUC∞/dose ([2]; single dose 300 mg): 60.4 ± 30.5 ng·mL·h/mg | CL/F ([2]; single dose 300 mg): 40.3 ± 12.4 L/h | Cmax/dose ([2]; single dose 300 mg): 2.8 ± 0.7 ng/mL/mg | fe ([2]; single dose 300 mg): 0.52±0.41% | AUC∞/dose ([2]; single dose 600 mg): 56.2 ± 31.1 ng·mL·h/mg | CL/F ([2]; single dose 600 mg): 50.0 ± 21.9 L/h | Cmax/dose ([2]; single dose 600 mg): 2.1 ± 0.7 ng/mL/mg | fe ([2]; single dose 600 mg): 0.25±0.17% | Gastrointestinal disorders, all AEs, number of events (Tolerability [3]; multiple doses): 3 (3) | Gastrointestinal disorders, all AEs, number of subjects (Tolerability [3]; multiple doses): 3 (3) | Gastrointestinal disorders, drug-related AEs, number of events (Tolerability [3]; multiple doses): 3 (3) | Gastrointestinal disorders, drug-related AEs, number of subjects (Tolerability [3]; multiple doses): 3 (3) | Nervous system disorders, all AEs, number of events (Tolerability [3]; multiple doses): 4 (4) | Nervous system disorders, all AEs, number of subjects (Tolerability [3]; multiple doses): 4 (4) | Nervous system disorders, drug-related AEs, number of events (Tolerability [3]; multiple doses): 4 (4) | Nervous system disorders, drug-related AEs, number of subjects (Tolerability [3]; multiple doses): 4 (4) | Oropharyngeal, respiratory, thoracic, and mediastinal disorders, all AEs, number of events (Tolerability [3]; multiple doses): 13 | Oropharyngeal, respiratory, thoracic, and mediastinal disorders, all AEs, number of subjects (Tolerability [3]; multiple doses): 12 | Oropharyngeal, respiratory, thoracic, and mediastinal disorders, drug-related AEs, number of events (Tolerability [3]; multiple doses): 9 | Oropharyngeal, respiratory, thoracic, and mediastinal disorders, drug-related AEs, number of subjects (Tolerability [3]; multiple doses): 8 | Skin and subcutaneous tissue disorders, all AEs, number of events (Tolerability [3]; multiple doses): 4 | Skin and subcutaneous tissue disorders, all AEs, number of subjects (Tolerability [3]; multiple doses): 3 | Skin and subcutaneous tissue disorders, drug-related AEs, number of events (Tolerability [3]; multiple doses): 1 (1) | Skin and subcutaneous tissue disorders, drug-related AEs, number of subjects (Tolerability [3]; multiple doses): 1 (1) | Total, drug-related AEs, number of subjects (Tolerability [3]; multiple doses): 16 | epistaxis, occurrences (Tolerability [3]; multiple-dose study): five | epistaxis, subjects (Tolerability [3]; multiple-dose study): four | CYP3A4 induction [4]: moderately induced | fold induction at 0.3 µM (CYP3A; human, probe testosterone): 1.9 | fold induction at 3 µM (CYP3A; human, probe testosterone): 5 | fold induction at 30 µM (CYP3A; human, probe testosterone): 8.8 | CYP3A enzyme activation (CYP3A; summary in words): exhibited a potential for CYP3A enzyme activation | steady state attained (Multiple-dose; 75 mg once daily): > 4 days | accumulation after multiple doses (Multiple-dose; 600 mg dose group): 0.6 fold | steady state attained (Multiple-dose; 150–600 mg once daily): > 6 days | Accumulation index (Multiple-dose; multiple doses 75 mg): 1.1±0.2 | AUCτ,ss/dose (Multiple-dose; multiple doses 75 mg): 49.3 ± 13.4 ng·mL·h/mg | CL/F (Multiple-dose; multiple doses 75 mg): 21.5 ± 5.4 L/h | Cmax,ss/dose (Multiple-dose; multiple doses 75 mg): 5.1 ± 1.7 ng/mL/mg | fe (Multiple-dose; multiple doses 75 mg): 0.52±0.40% | Accumulation index (Multiple-dose; multiple doses 150 mg): 1.1±0.5 | AUCτ,ss/dose (Multiple-dose; multiple doses 150 mg): 55.0 ± 27.1 ng·mL·h/mg | CL/F (Multiple-dose; multiple doses 150 mg): 22.3 ± 10.2 L/h | Cmax,ss/dose (Multiple-dose; multiple doses 150 mg): 4.9 ± 1.7 ng/mL/mg | fe (Multiple-dose; multiple doses 150 mg): 0.75±0.52% | Accumulation index (Multiple-dose; multiple doses 300 mg): 0.9±0.2 | AUCτ,ss/dose (Multiple-dose; multiple doses 300 mg): 22.7 ± 6.3 ng·mL·h/mg | CL/F (Multiple-dose; multiple doses 300 mg): 48.0 ± 17.6 L/h | Cmax,ss/dose (Multiple-dose; multiple doses 300 mg): 2.4 ± 0.6 ng/mL/mg | fe (Multiple-dose; multiple doses 300 mg): 0.28±0.15% | Accumulation index (Multiple-dose; multiple doses 600 mg): 0.6 and 0.6±0.1 | AUCτ,ss/dose (Multiple-dose; multiple doses 600 mg): 17.1 ± 9.5 ng·mL·h/mg | CL/F (Multiple-dose; multiple doses 600 mg): 71.9 ± 28.1 L/h | Cmax,ss/dose (Multiple-dose; multiple doses 600 mg): 1.8 ± 0.8 ng/mL/mg | fe (Multiple-dose; multiple doses 600 mg): 0.18±0.12% | epistaxis, occurrences ([5]; both studies, all deemed drug-related): seven | changes from baseline in clinical laboratory test results, vital signs, electrocardiography, computerized impedance cardiography, or physical examinations ([5]; single or multiple doses): no clinically meaningful changes from baseline | serious AEs ([5]; single or multiple doses 75–600 mg): No serious AEs occurred | tolerability ([5]; single or multiple doses 75–600 mg, healthy subjects): generally well tolerated without serious adverse events; also recorded: well tolerated | findings in in vivo safety pharmacology studies [6]: no significant findings | General disorder, all AEs, number of events (Tolerability [7]): 2 (2) | General disorder, all AEs, number of subjects (Tolerability [7]): 2 (2) | General disorder, drug-related AEs, number of events (Tolerability [7]): 1 (1) | General disorder, drug-related AEs, number of subjects (Tolerability [7]): 1 (1) | Genitourinary disorders, all AEs, number of events (Tolerability [7]): 1 (1) | Genitourinary disorders, all AEs, number of subjects (Tolerability [7]): 1 (1) | Genitourinary disorders, drug-related AEs, number of events (Tolerability [7]): 1 (1) | Genitourinary disorders, drug-related AEs, number of subjects (Tolerability [7]): 1 (1) | Musculoskeletal disorders, all AEs, number of events (Tolerability [7]): 2 | Musculoskeletal disorders, all AEs, number of subjects (Tolerability [7]): 1 | Musculoskeletal disorders, drug-related AEs, number of events (Tolerability [7]): 2 | Musculoskeletal disorders, drug-related AEs, number of subjects (Tolerability [7]): 1 | Nervous system disorders, all AEs, number of events (Tolerability [7]): 4 (4) | Nervous system disorders, all AEs, number of subjects (Tolerability [7]): 4 (4) | Nervous system disorders, drug-related AEs, number of events (Tolerability [7]): 3 (3) | Nervous system disorders, drug-related AEs, number of subjects (Tolerability [7]): 3 (3) | Ophthalmologic disorders, all AEs, number of events (Tolerability [7]): 1 (1) | Ophthalmologic disorders, all AEs, number of subjects (Tolerability [7]): 1 (1) | Oropharyngeal, respiratory, thoracic, and mediastinal disorders, all AEs, number of events (Tolerability [7]): 7 | Oropharyngeal, respiratory, thoracic, and mediastinal disorders, all AEs, number of subjects (Tolerability [7]): 6 | Oropharyngeal, respiratory, thoracic, and mediastinal disorders, drug-related AEs, number of events (Tolerability [7]): 2 | Oropharyngeal, respiratory, thoracic, and mediastinal disorders, drug-related AEs, number of subjects (Tolerability [7]): 1 | Total, all AEs, number of events (Tolerability [7]): 17 | antiviral activity [8]: low-nanomolar range | dose proportionality of Cmax and AUC [9, 11]: Dose proportionality was not observed; also recorded: less than dose-proportional nonlinear pharmacokinetics | pharmacokinetic characteristics (linearity) [9, 11]: dose- and time-dependent nonlinear pharmacokinetic characteristics; also recorded: dose-and time-dependent nonlinear pharmacokinetics; also recorded: dose- and time-dependent nonlinear pharmacokinetic profiles | fe ([9]; all dose levels, unchanged drug in urine): less than 1% | activity against K103N (K103N): showed activity against K103N | fold induction at 0.3 µM (CYP3A4 mRNA): 2.3 | fold induction at 3 µM (CYP3A4 mRNA): 6.2 | fold induction at 30 µM (CYP3A4 mRNA): 6.2 | CYP3A4 messenger ribonucleic acid induction [10]: CYP3A4 messenger ribonucleic acid induction
